Active and inactive are the calls of the source.
What was measured:
[1] = molecular target: Heat shock protein HSP 90-alpha (Homo sapiens, UniProt P07900); type: functional, organism-based
[2] = test system: Vero; assay: cells; type: functional; details: Chlorocebus sabaeus
[3] = test system: Vero; assay: cells; type: functional, cell-based; details: Chlorocebus sabaeus
[4] = molecular target: T1, Microphthalmia-associated transcription factor (Homo sapiens, UniProt O75030); assay: reducers of TRPM1 reporter luminescence, concentration series – cell-based, SK-MEL-5, cherry-picked, set 3, MITF inhibitor project, dose response (AID 493073); type: functional;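 further: SK-MEL-5 melanoma cells with luciferase driven by the MITF target TRPM1 promoter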
T1 sequence (O75030 whole entry): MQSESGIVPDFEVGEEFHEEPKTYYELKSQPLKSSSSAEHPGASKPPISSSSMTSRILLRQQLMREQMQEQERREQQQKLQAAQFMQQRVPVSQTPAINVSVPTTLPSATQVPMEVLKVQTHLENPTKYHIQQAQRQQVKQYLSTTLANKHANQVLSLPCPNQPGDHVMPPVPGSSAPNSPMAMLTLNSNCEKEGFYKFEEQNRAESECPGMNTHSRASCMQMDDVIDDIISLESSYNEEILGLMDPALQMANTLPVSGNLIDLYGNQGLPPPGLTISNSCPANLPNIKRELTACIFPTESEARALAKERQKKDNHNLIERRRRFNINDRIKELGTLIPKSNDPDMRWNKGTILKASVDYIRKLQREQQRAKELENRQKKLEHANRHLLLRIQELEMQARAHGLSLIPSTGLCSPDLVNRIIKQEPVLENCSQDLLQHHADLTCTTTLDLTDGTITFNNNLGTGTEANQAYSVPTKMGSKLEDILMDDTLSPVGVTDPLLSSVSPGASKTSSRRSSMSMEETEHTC

[5] = test system: HEK293; assay: HEK293T cell viability loss, resazurin readout – resazurin fluorescence, cytotoxicity control for NF-kB activator project, SAR follow-up (AID 493251); type: functional, cell-based; details: Homo sapiens
[6] = test system: Jurkat; assay: SAR Analysis of small molecule inhibitors of T-cell specific antigen receptor-induced NF-kB activation in a Jurkat cell line using a luminescence assay - Set 2. [Related pubchem assays (depositor defined):AID435003, AID435012, AID465]; type: functional, cell-based; details: Homo sapiens
[7] = test system: HEK293; assay: SAR Analysis of small molecule inhibitors of T-cell specific antigen receptor-induced NF-kB activation in a HEK-293T cell line using a luminescence assay - Set 2. [Related pubchem assays (depositor defined):AID435003, AID435012, AID489026]; type: functional, cell-based; details: Homo sapiens
[8] = test system: H9c2; assay: cells; type: functional, cell-based; details: Rattus norvegicus, H9c2, Myocardium;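 further: confirmatory concentration-response retest of ultra-high-throughput screening hits for modulation of myocardial damage; cell death induced by hydrogen peroxide oxidative stress; compound pretreatment for 60 min then peroxide exposure for 2 h; potency is for protecting the cells against peroxide damage rather than for killing them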
[9] = Trypanosoma cruzi growth suppression in host cells – NIH3T3 host cells, beta-gal luminescence, confirmation (AID 2044); type: functional, cell-based;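 further: intracellular parasites grown in NIH/3T3 mouse fibroblasts as host cells; luminescent beta-galactosidase reporter signal from transgenic T. cruzi replicating inside host cells; inhibitors lower the luminescence signal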
[10] = luciferase reporter signal suppression in cells – H4 neuroglioma cells, luminescence, dose response (AID 1990); type: functional, cell-based
[11] = Luminescence Cell-Based Dose Response HTS to Identify Inhibitors of 5'UTR Stem-Loop Driven Prion Protein mRNA Translation in H4 Neuroglioblastoma Cells. [Related pubchem assays: 1827 (Project Summary), 1813 (Primary HTS)]; type: functional
[12] = alpha-synuclein stem-loop luciferase translation blockers – H4 neuroglioma cells, luminescence, confirmation (AID 1988); type: functional, cell-based
[13] = NIH3T3 cell viability loss – ATP luminescence, mouse fibroblasts, counter-screen, dose response (AID 2010); type: functional, cell-based;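 further: cells exposed to compound for about 90 hours before reading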
[14] = A Cell Based Secondary Assay To Explore Cytotoxicity of Compounds that Sensitize Mycobacterium Tuberculosis to Beta-Lactam Antibiotics.; type: functional
[15] = test system: A-375; assay: proliferation inhibition in MITF-low A375 cells – cell-based, cherry-pick samples, set 2, counter-screen for MITF modulator project, dose response (AID 540335); type: functional; details: Homo sapiens
[16] = DRD fibroblast viability loss – cell-based, non-viral oncogenic, luminescence, dose response (AID 1934); type: functional; details: Homo sapiens
[17] = test system: BJ; assay: BJ-TERT fibroblast viability loss – cell-based, RAS-independent, luminescence, dose response (AID 1933); type: functional; details: Homo sapiens
[18] = test system: BJ; assay: cells; type: functional, cell-based; details: Homo sapiens
[19] = test system: BJ; assay: BJ-TERT-LT-ST fibroblast viability loss – cell-based, RAS-independent, luminescence, dose response (AID 1935); type: functional; details: Homo sapiens;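 further: BJ fibroblasts immortalized with TERT plus LT and ST oncogenes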
[20] = test system: A-375; assay: MITF: Counter assay: A375 proliferation Measured in Cell-Based System Using Plate Reader - 2084-03_Inhibitor_Dose_DryPowder_Activity. [Related pubchem assays (depositor defined):AID488944]; type: functional; details: Homo sapiens
[21] = molecular target: T2, Polyadenylate-binding protein 1 (Homo sapiens, UniProt P11940); assay: MLLE domain peptide-binding blockers, IC50 – biochemical, fluorescence polarization, FITC-PAM2 peptide, dose response (AID 602259); type: functional; details: read-out: IC50_Mean
[22] = molecular target: T2, Polyadenylate-binding protein 1; assay: MLLE binding blockers, Cy5 peptide tracer – biochemical, fluorescence polarization, Cy5-PAM2 peptide, secondary, miRNA deadenylation inhibitor project, dose response (AID 602260); type: functional; details: read-out: IC50_Mean
[23] = molecular target: Large T antigen (Simian virus 40, UniProt P03070); type: functional, Betapolyomavirus macacae;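 further: Confirmatory-stage PubChem screen for compounds that inhibit SV40 T antigen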
[24] = molecular target: Dual specificity tyrosine-phosphorylation-regulated kinase 1A (Rattus norvegicus, UniProt Q63470); type: biochemical, Homo sapiens
[25] = molecular target: Voltage-gated inwardly rectifying potassium channel KCNH2 (Homo sapiens, UniProt Q12809); details: Potency;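 further: confirmatory quantitative high-throughput screen measuring inhibition of hERG channel activity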
[26] = molecular target: CAAX prenyl protease 2 (Homo sapiens, UniProt Q9Y256); assay: inhibition of Ras-converting CAAX protease Rce1 – biochemical, yeast membranes, quenched-peptide fluorescence, cherry-pick, dose response (AID 588849)
[27] = molecular target: T3, Ubiquitin-conjugating enzyme E2 N (Homo sapiens, UniProt P61088); type: functional;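 further: Dose-response confirmation in a TR-FRET assay detecting UBC13-driven polyubiquitin chain formation, inhibition measured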
T3 sequence (P61088 whole entry): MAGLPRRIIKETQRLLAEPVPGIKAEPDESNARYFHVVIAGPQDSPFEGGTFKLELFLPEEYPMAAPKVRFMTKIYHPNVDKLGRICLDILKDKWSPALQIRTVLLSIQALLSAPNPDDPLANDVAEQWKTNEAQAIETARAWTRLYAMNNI

[28] = molecular target: CAAX prenyl protease 2 (Saccharomyces cerevisiae S288c, UniProt Q03530); type: biochemical
[29] = molecular target: Trypsin (Sus scrofa, UniProt P00761); assay: trypsin protease activity blockade – biochemical, quenched peptide fluorescence, cherry-pick, selectivity assay for Rce1 protease inhibitor project, dose response (AID 488789)
[30] = test system: HEK293; assay: cells; details: Homo sapiens
[31] = Fluorescence-based cell-based high throughput dose response assay for inhibitors of the interaction of nucleotide-binding oligomerization domain containing 2 (NOD2) and the receptor-interacting serine-threonine kinase 2 (RIPK2).; type: functional; details: Homo sapiens
[32] = molecular target: Paired box protein Pax-8 (Homo sapiens, UniProt Q06710); assay: PAX8 transcriptional activity inhibition in RMG-I – RMG-I cells, luciferase, cherry-pick, dose response (AID 687027); type: functional, cell-based;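 further: luciferase reporter driven by Pax8 target thyroperoxidase promoter measured by SteadyGlo luminescence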
[33] = test system: HEK293; assay: cells; details: Homo sapiens; remark: listed apart in the source
[34] = molecular target: DNA topoisomerase (Yersinia pestis, UniProt A0A2S9PM60); assay: Yersinia topoisomerase I cleavage product accumulation – biochemical, cherry-pick, dose response (AID 588525)
[35] = molecular target: Glucose-6-phosphate 1-dehydrogenase (Homo sapiens, UniProt P11413); assay: inhibition of Homo sapiens G6PD, dose series – biochemical, fluorescence, selectivity assay for P. falciparum G6PD inhibitor project, dose response (AID 504792); type: functional
Sequence of Glucose-6-phosphate 1-dehydrogenase (P11413 whole entry): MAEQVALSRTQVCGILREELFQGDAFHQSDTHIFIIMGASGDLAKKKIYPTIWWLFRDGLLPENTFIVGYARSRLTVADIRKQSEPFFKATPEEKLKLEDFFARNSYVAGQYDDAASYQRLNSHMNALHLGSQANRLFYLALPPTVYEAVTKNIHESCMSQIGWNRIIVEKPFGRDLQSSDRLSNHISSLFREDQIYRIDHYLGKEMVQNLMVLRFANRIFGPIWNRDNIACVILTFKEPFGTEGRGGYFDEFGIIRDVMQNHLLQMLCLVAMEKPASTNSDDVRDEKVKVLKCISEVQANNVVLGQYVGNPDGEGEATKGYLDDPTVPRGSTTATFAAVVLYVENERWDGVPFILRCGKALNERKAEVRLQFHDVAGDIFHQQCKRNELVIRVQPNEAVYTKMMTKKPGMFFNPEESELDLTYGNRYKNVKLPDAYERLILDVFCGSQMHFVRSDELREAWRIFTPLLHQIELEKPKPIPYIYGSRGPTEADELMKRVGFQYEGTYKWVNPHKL

T2 sequence (P11940 whole entry, the tested form may be a part): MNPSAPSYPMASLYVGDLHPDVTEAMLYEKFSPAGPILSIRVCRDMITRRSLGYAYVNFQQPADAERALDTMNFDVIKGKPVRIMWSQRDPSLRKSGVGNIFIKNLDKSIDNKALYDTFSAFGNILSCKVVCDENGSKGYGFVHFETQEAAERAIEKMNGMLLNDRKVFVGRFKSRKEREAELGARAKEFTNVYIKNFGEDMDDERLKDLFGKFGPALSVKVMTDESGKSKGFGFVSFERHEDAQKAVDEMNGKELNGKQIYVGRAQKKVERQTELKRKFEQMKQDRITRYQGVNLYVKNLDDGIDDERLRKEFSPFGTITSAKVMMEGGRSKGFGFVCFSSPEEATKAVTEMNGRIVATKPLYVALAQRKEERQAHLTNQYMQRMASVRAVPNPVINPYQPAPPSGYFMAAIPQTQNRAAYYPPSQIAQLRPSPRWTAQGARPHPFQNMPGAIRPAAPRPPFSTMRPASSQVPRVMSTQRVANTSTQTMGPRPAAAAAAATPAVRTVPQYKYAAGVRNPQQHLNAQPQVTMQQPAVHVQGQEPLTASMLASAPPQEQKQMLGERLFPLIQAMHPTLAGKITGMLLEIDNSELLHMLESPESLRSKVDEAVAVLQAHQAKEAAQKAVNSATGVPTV
Sequence of DNA topoisomerase (A0A2S9PM60 whole entry): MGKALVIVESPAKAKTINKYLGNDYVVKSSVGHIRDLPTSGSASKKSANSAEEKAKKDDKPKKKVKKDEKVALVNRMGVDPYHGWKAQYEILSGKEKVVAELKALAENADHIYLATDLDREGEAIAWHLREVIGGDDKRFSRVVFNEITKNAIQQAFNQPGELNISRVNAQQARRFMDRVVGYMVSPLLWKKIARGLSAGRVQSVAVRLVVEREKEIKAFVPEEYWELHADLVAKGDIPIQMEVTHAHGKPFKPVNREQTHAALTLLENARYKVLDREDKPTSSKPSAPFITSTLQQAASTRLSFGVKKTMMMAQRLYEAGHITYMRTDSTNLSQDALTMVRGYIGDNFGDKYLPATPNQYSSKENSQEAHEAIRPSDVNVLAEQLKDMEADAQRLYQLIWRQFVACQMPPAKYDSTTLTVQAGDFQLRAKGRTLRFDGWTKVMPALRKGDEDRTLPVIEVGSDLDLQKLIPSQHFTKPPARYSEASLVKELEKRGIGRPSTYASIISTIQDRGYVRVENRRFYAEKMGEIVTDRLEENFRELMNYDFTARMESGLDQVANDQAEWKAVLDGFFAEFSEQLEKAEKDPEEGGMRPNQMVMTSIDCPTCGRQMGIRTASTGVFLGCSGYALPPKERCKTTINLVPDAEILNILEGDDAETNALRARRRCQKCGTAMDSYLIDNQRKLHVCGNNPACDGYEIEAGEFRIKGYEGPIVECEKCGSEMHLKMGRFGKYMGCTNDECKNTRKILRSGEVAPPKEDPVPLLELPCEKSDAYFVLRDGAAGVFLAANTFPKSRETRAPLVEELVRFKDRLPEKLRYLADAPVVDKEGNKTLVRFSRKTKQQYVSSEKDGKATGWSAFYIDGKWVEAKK
Sequence of Voltage-gated inwardly rectifying potassium channel KCNH2 (Q12809 whole entry): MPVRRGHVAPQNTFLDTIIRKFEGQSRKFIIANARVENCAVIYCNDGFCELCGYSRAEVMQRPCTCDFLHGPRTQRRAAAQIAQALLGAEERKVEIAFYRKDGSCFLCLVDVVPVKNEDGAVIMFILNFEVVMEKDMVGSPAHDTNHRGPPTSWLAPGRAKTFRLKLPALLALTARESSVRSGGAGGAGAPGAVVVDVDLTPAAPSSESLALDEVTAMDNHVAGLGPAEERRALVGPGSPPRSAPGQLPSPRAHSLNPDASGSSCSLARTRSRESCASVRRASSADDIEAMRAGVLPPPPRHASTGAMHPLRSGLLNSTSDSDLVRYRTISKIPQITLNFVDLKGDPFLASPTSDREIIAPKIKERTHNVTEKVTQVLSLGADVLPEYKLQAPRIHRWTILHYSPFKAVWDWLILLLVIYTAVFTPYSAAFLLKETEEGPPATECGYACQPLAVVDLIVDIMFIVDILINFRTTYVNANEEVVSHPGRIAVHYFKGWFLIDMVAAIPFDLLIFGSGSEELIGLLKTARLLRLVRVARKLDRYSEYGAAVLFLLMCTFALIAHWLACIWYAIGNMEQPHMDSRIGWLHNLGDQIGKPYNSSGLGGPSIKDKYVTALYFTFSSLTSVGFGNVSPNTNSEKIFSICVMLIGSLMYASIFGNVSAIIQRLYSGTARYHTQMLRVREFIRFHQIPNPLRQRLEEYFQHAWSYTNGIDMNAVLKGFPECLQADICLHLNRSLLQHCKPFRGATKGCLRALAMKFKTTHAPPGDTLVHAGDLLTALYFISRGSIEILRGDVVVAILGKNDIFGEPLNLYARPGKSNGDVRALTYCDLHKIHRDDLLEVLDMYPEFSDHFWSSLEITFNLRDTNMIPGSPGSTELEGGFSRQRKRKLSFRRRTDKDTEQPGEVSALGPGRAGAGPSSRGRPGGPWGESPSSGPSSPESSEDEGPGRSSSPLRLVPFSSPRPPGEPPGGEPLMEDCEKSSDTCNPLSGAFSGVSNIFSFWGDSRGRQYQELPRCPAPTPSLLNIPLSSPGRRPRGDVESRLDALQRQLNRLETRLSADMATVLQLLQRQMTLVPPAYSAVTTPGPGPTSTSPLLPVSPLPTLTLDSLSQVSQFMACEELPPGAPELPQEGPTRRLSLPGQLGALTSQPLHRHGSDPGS
Sequence of CAAX prenyl protease 2 (Homo sapiens, UniProt Q9Y256) (Q9Y256 whole entry): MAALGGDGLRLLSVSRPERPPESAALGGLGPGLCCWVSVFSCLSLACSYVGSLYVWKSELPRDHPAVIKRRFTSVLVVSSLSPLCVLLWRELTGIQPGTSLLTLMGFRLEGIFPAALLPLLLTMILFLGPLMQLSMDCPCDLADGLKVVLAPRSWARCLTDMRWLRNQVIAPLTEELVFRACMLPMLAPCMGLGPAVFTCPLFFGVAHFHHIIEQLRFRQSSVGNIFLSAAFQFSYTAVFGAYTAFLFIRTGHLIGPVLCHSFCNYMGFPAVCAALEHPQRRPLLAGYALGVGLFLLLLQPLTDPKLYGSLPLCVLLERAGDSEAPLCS
Sequence of Trypsin (P00761 whole entry): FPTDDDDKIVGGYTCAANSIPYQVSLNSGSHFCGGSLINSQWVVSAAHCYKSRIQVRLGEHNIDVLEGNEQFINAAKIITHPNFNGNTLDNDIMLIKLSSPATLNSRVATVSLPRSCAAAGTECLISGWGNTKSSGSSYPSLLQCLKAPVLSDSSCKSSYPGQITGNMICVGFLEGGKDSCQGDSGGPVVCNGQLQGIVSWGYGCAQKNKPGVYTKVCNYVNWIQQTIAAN
Sequence of Paired box protein Pax-8 (Q06710 whole entry): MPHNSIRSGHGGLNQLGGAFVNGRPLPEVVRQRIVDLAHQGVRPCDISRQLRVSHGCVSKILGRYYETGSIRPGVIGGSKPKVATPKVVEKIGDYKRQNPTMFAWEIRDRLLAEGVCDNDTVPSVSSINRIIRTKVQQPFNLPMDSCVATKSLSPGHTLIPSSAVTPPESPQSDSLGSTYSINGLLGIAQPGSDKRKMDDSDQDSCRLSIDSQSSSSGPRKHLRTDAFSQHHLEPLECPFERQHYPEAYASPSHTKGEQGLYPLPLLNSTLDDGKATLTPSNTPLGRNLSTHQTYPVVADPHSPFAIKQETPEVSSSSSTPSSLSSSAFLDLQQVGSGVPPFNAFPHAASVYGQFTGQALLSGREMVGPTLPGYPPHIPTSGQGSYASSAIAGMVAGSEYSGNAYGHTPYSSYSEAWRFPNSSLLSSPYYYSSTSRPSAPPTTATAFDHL
Sequence of CAAX prenyl protease 2 (Saccharomyces cerevisiae S288c, UniProt Q03530) (Q03530 whole entry): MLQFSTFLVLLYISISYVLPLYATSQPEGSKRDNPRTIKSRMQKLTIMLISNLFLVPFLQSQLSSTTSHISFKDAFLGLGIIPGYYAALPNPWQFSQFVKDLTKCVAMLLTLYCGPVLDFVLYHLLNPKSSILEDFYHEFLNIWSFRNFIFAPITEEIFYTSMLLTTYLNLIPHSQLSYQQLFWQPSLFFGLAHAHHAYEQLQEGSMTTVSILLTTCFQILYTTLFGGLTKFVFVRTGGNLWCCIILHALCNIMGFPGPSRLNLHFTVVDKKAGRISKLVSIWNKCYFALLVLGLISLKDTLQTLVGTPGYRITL

With `O=[N+]([O-])c1ccc(NC(c2ccccc2)c2ccc3cccnc3c2O)cc1` (stereo not drawn) the AC50 [1] was 3.92 µM (active), the CC50 [2] was 4.02 µM (active) and the IC50 [3] was > 25 µM (active).

In the case of `CN1CCN(c2ccccc2NC(=O)c2ccc([N+](=O)[O-])o2)CC1`, the AC50 [4] was 4.95 µM (active), the IC50 [5] was 23.6 µM (inactive) and the IC50 [6] was 24.8 µM (inactive). For the same molecule, the IC50 [7] was 15.6 µM (active).

In the case of `CC(Oc1cccc(Cl)c1)C(=O)Nc1nc(-c2ccccn2)cs1` (stereo not drawn), the IC50 [8] was > 79 µM (inactive), the EC50 [9] was 0.822 µM (active) and the EC50 [10] was 10.4 µM (active). For the same molecule, the CC50 [2] was 15.8 µM (active), the EC50 [11] was 11.9 µM (active) and the EC50 [12] was 9.63 µM (active). For the same molecule, the EC50 [13] was 6.81 µM (active) and the IC50 [3] was > 25 µM (active).

With `COc1ccc2[nH]cc(C(=O)CCl)c2c1` the CC50 [14] was 5.65 µM (active), the AC50 [15] was 45.9 µM (active) and the EC50 [16] was 8.64 µM (active). The AC50 [4] was 5.65 µM (active), the EC50 [17] was 4.61 µM (active) and the EC50 [18] was 7.02 µM (active). For the same molecule, the EC50 [19] was 7.84 µM (inconclusive).

In the case of `NC(=NOC(=O)c1ccncc1)c1cccc([N+](=O)[O-])c1`, the AC50 [20] was > 35 µM (active) and the AC50 [15] was > 35 µM (active).

In the case of `OC1=C2Sc3ccccc3N=C2CCC1`, the IC50 [21] was 59 µM (inactive), the IC50 [22] was 35.2 µM (inactive) and the IC50 [23] was 9.55 µM (active). The AC50 [24] was 8.45 µM (active).

For `Clc1ccc(C(c2ccccc2Cl)C(Cl)(Cl)Cl)cc1` (stereo not drawn), the AC50 [25] was 8.91 µM (inconclusive).

For `Cc1ccc(-c2nc(CN3CCCCC3)cc(CN3CCCCC3)c2O)cc1`, the AC50 [26] was 10.1 µM (active).

In the case of `COc1ccc(-c2cc(C(=O)NCCCN3CCCC3=O)c3ccccc3n2)cc1`, the IC50 [27] was > 20 µM (inactive), the AC50 [28] was 18 µM (active) and the AC50 [26] was 23.3 µM (active). The AC50 [29] was 9.31 µM (active).

In the case of `O=C(Cn1ncc(Cl)c(Cl)c1=O)Nc1ccc2c(c1)OCO2`, the EC50 [30] was > 59.6 µM (inactive), the IC50 [31] was 11.8 µM (inactive) and the AC50 [4] was 13.2 µM (active). The AC50 [32] was 4.07 µM (active) and the EC50 [33] was > 59.6 µM (inactive).

For `CCCOc1ccc(C(=O)Nc2ccc(S(=O)(=O)N3C[C@@H]4C[C@@H](C3)c3cccc(=O)n3C4)cc2)cc1`, the AC50 [34] was 3.3 µM (active).

With `N=C1C=CC(=C(c2ccc(N)cc2)c2ccc(N)cc2)C=C1` the AC50 [25] was 44.7 µM (inconclusive).

In the case of `CN(C)c1ccc2nc3ccc(=O)cc-3sc2c1`, the IC50 [35] was > 80 µM (inactive) and the AC50 [34] was 4.67 µM (active).

Reference: ChEMBL document CHEMBL1201862, “PubChem BioAssay data set” (2004)
